Results on eight compounds are retold here after patent US9924715B2, “Zinc or copper (II) salt and use thereof as a biocide” (LABORATORIYA BIO ZET, LLC, priority 2014, dated 2018).

“And” between values parts separate entries of the source, which are not always exact repeats. Equal entries are not always repeated.

Common to all, as to type: cell-based
For experiment [1], the system named is fungal spores. Nature of the experiment: Fungicidal activity, GOST 30028.4-2006, resistance of treated materials. How it is done: The fungicidal activity of the proposed salts is determined according to GOST 30028.4-2006 by testing samples of various materials treated with these salts for resistance to fungal spores. Test results in terms of tolerance time (in days) are given in Table 4 wherein tolerance time for untreated materials are given for comparison.

Experiment [2] deals with E. coli No. 906. Nature of the experiment: Bactericidal activity: exposure in solution, neutralization, inoculation on solid medium. The settings on record: for Bacterial growth after exposure (colony-forming units in 1 ml): E. coli 906; for Bactericidal effect: E. coli No. 906. The arrangement: key to Bacterial growth after exposure (colony-forming units in 1 ml): NG—no growth; CG—confluent growth.

The test system of experiment [3] is S. aureus No. 1257. The experiment is described as above. Particulars: for Bacterial growth after exposure (colony-forming units in 1 ml): S. aureus 1257; for Bactericidal effect: S. aureus No. 1257. Details: key to Bacterial growth after exposure (colony-forming units in 1 ml): NG—no growth; CG—confluent growth.
Experiment [4] deals with clinical strain P. aeruginosa. Described as above. Particulars: for Bactericidal effect: 4.0%. The arrangement: key to Bacterial growth after exposure (colony-forming units in 1 ml): NG—no growth; CG—confluent growth.
Where [5] appears, read: Emulsion polyvinyl chloride, additive content 5 wt %, untreated control 6 days.
Where [6] appears, read: Paper impregnated with latex SKS 65 GP, additive content 5 wt %, untreated control 4 days.

With `C=CC(=O)[O-].CCCCCCCCCC(=O)[O-].[Cu+2]` [Copper acrylate-caprinate], the “Tolerance time” value is 20 days in experiment [1] (setting [5]); 19 days in experiment [1] (setting [6]); 21 days in experiment [1] (Paper impregnated with petrolatum base, additive content 5 wt %, untreated control 15 days).

As for `C=CC(=O)[O-].CCCCCCCCCCCCCCCCCC(=O)[O-].[Cu+2]` [Copper acrylate-stearate], the “Bacterial growth after exposure (colony-forming units in 1 ml)” value (“Bacterial growth after exposure” for short) in experiment [2] (2.0 wt %, exposure 5 min) is listed as “CG”; in experiment [2] (2.0 wt %, exposure 15 min) it was 100 CFU; in experiment [2] (2.0 wt %, exposure 30 min), 10 CFU; in experiment [2] (2.0 wt %, exposure 60 min), “NG”; in experiment [2] (4.0 wt %, exposure 5 min), “NG”; in experiment [2] (4.0 wt %, exposure 15 min), “NG”. Further, the “Bacterial growth after exposure” value in experiment [2] (4.0 wt %, exposure 30 min) is reported as “NG”; in experiment [2] (4.0 wt %, exposure 60 min), “NG”; in experiment [3] (2.0 wt %, exposure 5 min), “CG”; in experiment [3] (2.0 wt %, exposure 15 min), >300 CFU; in experiment [3] (2.0 wt %, exposure 30 min), 25 CFU; in experiment [3] (2.0 wt %, exposure 60 min) it was “NG”. Besides, the “Bacterial growth after exposure” value in experiment [3] (4.0 wt %, exposure 5 min) is given as “NG”; in experiment [3] (4.0 wt %, exposure 15 min), “NG”; in experiment [3] (4.0 wt %, exposure 30 min), “NG”; in experiment [3] (4.0 wt %, exposure 60 min), “NG”; in experiment [4] (2.0 wt %, exposure 5 min), “CG”; in experiment [4] (2.0 wt %, exposure 15 min) it was “CG”. Besides, the “Bacterial growth after exposure” value was “CG” in experiment [4] (2.0 wt %, exposure 30 min); “CG” in experiment [4] (2.0 wt %, exposure 60 min); “CG” in experiment [4] (4.0 wt %, exposure 5 min); >300 CFU in experiment [4] (4.0 wt %, exposure 15 min); “NG” in experiment [4] (4.0 wt %, exposure 60 min). Also, the Bactericidal effect entry in experiment [2] (2.0%, exposure 60 min) was “sustained bactericidal effect”; in experiment [2] (4.0%, exposure from 5 min) it was “sustained bactericidal effect”; in experiment [3] (2.0%, exposure 60 min) it was “sustained bactericidal effect”; in experiment [3] (4.0%, exposure from 5 min), “sustained bactericidal effect”; in experiment [4] (exposure of more than 30 min), “bactericidal effect”. In addition, the “Tolerance time” value in experiment [1] (setting [5]) was 12 days; in experiment [1] (setting [6]) it was 16 days.

Regarding `C/C=C/C(=O)[O-].C=CC(=O)[O-].[Zn+2]` [Zinc acrylate-crotonate, zinc acrylate-crotonate], the “Bacterial growth after exposure” value is recorded as 75 CFU in experiment [2] (2.0 wt %, exposure 5 min); 42 CFU in experiment [2] (2.0 wt %, exposure 15 min); >300 CFU in experiment [2] (2.0 wt %, exposure 30 min); “NG” in experiment [2] (4.0 wt %, exposure 5 min); “NG” in experiment [2] (4.0 wt %, exposure 15 min); “NG” in experiment [2] (4.0 wt %, exposure 30 min). Further, the “Bacterial growth after exposure” value is listed as “NG” in experiment [2] (4.0 wt %, exposure 60 min); “CG” in experiment [3] (2.0 wt %, exposure 5 min); “CG” in experiment [3] (2.0 wt %, exposure 15 min); “CG” in experiment [3] (2.0 wt %, exposure 30 min); >300 CFU in experiment [3] (2.0 wt %, exposure 60 min); 7 CFU in experiment [3] (4.0 wt %, exposure 5 min). The “Bacterial growth after exposure” value in experiment [3] (4.0 wt %, exposure 15 min) is on record as “NG”; in experiment [3] (4.0 wt %, exposure 30 min), “NG”; in experiment [3] (4.0 wt %, exposure 60 min), “NG”; in experiment [4] (2.0 wt %, exposure 5 min) it was >300 CFU; in experiment [4] (2.0 wt %, exposure 15 min) it was 10 CFU; in experiment [4] (2.0 wt %, exposure 30 min), 4 CFU. In addition, the “Bacterial growth after exposure” value in experiment [4] (4.0 wt %, exposure 5 min) is reported as 1 CFU; in experiment [4] (4.0 wt %, exposure 15 min) it was “NG”; in experiment [4] (4.0 wt %, exposure 30 min), “NG”; in experiment [4] (4.0 wt %, exposure 60 min), “NG”. Further, the Bactericidal effect entry in experiment [2] (4.0%, exposure from 15 min) is reported as “sustained bactericidal effect”; in experiment [3] (4.0%, exposure from 15 min), “sustained bactericidal effect”; in experiment [4] (exposure from 15 min), “sustained bactericidal effect”.

With `C=CC(=O)[O-].CCCCCCCCCCC(=O)[O-].[Zn+2]` [Zinc acrylate-undecylate], the “Tolerance time” value in experiment [1] (setting [5]) was determined as 10 days; in experiment [1] (setting [6]) it was 12 days; in experiment [1] (Paper impregnated with petrolatum base, additive content 4.7 wt %, untreated control 15 days), 20 days.

As for Copper methacrylate-sorbate, the “Bacterial growth after exposure” value in experiment [2] (2.0 wt %, exposure 5 min) was >300 CFU; in experiment [2] (2.0 wt %, exposure 15 min), 78 CFU; in experiment [2] (2.0 wt %, exposure 30 min) it was 45 CFU and 53 CFU; in experiment [2] (2.0 wt %, exposure 60 min), 5 CFU and 4 CFU; in experiment [2] (4.0 wt %, exposure 5 min), 1 CFU; in experiment [2] (4.0 wt %, exposure 15 min), “NG”. The “Bacterial growth after exposure” value in experiment [2] (4.0 wt %, exposure 30 min) was “NG”; in experiment [2] (4.0 wt %, exposure 60 min), “NG”; in experiment [3] (2.0 wt %, exposure 5 min) it was >300 CFU; in experiment [3] (2.0 wt %, exposure 15 min), 85 CFU; in experiment [3] (2.0 wt %, exposure 30 min), 35 CFU and 43 CFU; in experiment [3] (4.0 wt %, exposure 5 min), “NG”. Also, the “Bacterial growth after exposure” value in experiment [3] (4.0 wt %, exposure 15 min) was “NG”; in experiment [3] (4.0 wt %, exposure 30 min), “NG”; in experiment [3] (4.0 wt %, exposure 60 min), “NG”. Further, the Bactericidal effect result in experiment [2] (4.0%, exposure from 15 min) is “sustained bactericidal effect”; in experiment [3] (4.0%, exposure from 15 min) it was “sustained bactericidal effect”; in experiment [4] (exposure from 15 min), “sustained bactericidal effect”.

In the case of Copper methacrylate-valerate, in experiment [1] (setting [5]), the “Tolerance time” value is on record as 16 days.

As to Zinc methacrylate-butyrate, the “Tolerance time” value in experiment [1] (setting [5]) worked out at 11 days; in experiment [1] (setting [6]), 10 days.

Take Zinc methacrylate-myristate: the “Tolerance time” value in experiment [1] (setting [5]) amounted to 12 days.
